The assay relates to strain MNH 18574. Description: Antibiotic sensitivity test by disk diffusion method. In kind it is cell-based, Collinsella sp. Conditions: for Diameter of inhibition zone: strain MNH 18574. Here is the method:
An antibiotic sensitivity test was carried out on the strain MNH 18574 by a disk diffusion method.

For Penicillin [Penicillin (PEN)], the “sensitivity or resistance of strain MNH 18574 to the antibiotic” value (“sensitivity or resistance” below) was “sensitive” and the “Diameter of inhibition zone” value is 24.51 mm.
`CCC[C@@H]1C[C@@H](C(=O)N[C@@H]([C@H]2O[C@H](SC)[C@H](O)[C@@H](O)[C@H]2O)[C@@H](C)O)N(C)C1` [Lincomycin (LIN), Lincomycin]: the “sensitivity or resistance” value is listed as “resistant” and the “Diameter of inhibition zone” value is recorded as 0 mm.
Regarding `CC[C@H]1OC(=O)[C@H](C)[C@@H](O[C@H]2C[C@@](C)(OC)[C@@H](O)[C@H](C)O2)[C@H](C)[C@@H](O[C@@H]2O[C@H](C)C[C@H](N(C)C)[C@H]2O)[C@](C)(O)C[C@@H](C)C(=O)[C@H](C)[C@@H](O)[C@]1(C)O` [Erythromycin (ERM), Erythromycin], the “sensitivity or resistance” value is “resistant” and the “Diameter of inhibition zone” value is 0 mm.
Take `CN(C)[C@@H]1C(O)=C(C(N)=O)C(=O)[C@@]2(O)C(O)=C3C(=O)c4c(O)cccc4[C@@](C)(O)[C@H]3C[C@@H]12` [Tetracycline (TET), Tetracycline]: the “Diameter of inhibition zone” value is reported as 0 mm.
With Gentamicin [Gentamicin (GEN)], the “sensitivity or resistance” value is listed as “resistant” and the “Diameter of inhibition zone” value is listed as 0 mm.
For `O=C(O)c1cn(C2CC2)c2cc(N3CCNCC3)c(F)cc2c1=O` [Ciprofloxacin (CFX), Ciprofloxacin], in that order: “resistant” and 0 mm.
On to `CO/N=C(\C(=O)N[C@@H]1C(=O)N2C(C(=O)O)=C(CSc3nc(=O)c(=O)[nH]n3C)CS[C@H]12)c1csc(N)n1` [Ceftriaxone (CTR), Ceftriaxone], for which the “sensitivity or resistance” value is given as “resistant” and the “Diameter of inhibition zone” value amounted to 0 mm.
On to “Trimethoprim-sulfamethoxazole [Trimethoprim-sulfamethoxazole (T/S)]”, for which the “sensitivity or resistance” value is given as “resistant” and the “Diameter of inhibition zone” value was found to be 0 mm.
Regarding `CC1(C)S[C@@H]2[C@H](NC(=O)[C@H](N)c3ccccc3)C(=O)N2[C@H]1C(=O)O` [Ampicillin (AMP), Ampicillin], the “sensitivity or resistance” value is “resistant” and the “Diameter of inhibition zone” value came to 0 mm.
Regarding `O=C(N[C@H](CO)[C@H](O)c1ccc([N+](=O)[O-])cc1)C(Cl)Cl` [Chloramphenicol (CLM), Chloramphenicol], the “sensitivity or resistance” value is recorded as “sensitive” and the “Diameter of inhibition zone” value is 27.64 mm.

For the origin of these results see patent publication US20260216255A1, “STRAIN OF COLLINSELLA, AND PHARMACEUTICAL COMPOSITION THEREOF” (MOON (GUANGZHOU) BIOTECH CO., LTD., priority 2022, published 2026).
